Legend:
[1] = Half life in Sprague-Dawley rat liver microsomes at 6 ug/ml by HPLC method; format: ADME
[2] = biological target: T1, Sterol O-acyltransferase 2 (Mus musculus) (UniProt O88908); assay: Ratio of compound IC50 to PRD 043 IC50 for ACAT2 in mouse hepatic microsomal membranes; format: cell membranes; conditions: Liver, Microsomal Membrane
T1 sequence (whole entry): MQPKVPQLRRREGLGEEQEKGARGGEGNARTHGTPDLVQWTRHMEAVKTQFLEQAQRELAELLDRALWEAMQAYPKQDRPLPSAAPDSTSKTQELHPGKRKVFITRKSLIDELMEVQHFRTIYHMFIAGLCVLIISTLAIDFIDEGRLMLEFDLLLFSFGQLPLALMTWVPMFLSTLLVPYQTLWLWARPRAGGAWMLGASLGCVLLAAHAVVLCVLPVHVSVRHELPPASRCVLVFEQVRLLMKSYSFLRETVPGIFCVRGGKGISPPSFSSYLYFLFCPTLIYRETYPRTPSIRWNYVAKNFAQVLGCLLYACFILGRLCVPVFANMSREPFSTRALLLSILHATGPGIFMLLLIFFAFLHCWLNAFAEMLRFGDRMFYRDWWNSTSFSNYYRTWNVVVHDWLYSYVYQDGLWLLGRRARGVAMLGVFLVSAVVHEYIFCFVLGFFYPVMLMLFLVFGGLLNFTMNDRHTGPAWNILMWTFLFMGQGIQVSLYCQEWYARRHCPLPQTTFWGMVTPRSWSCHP

Compound	half-life at 6 ug/ml [1]	Ratio IC50 [2]
C[C@@]12CO[C@@H](c3ccccc3)O[C@H]1CC[C@@]1(C)[C@H]2C[C@H](OC(=O)C2CCCCC2)[C@@]2(C)Oc3cc(-c4cccnc4)oc(=O)c3[C@H](O)[C@H]12	> 9 h	< 20
CN(C)c1ccc([C@@H]2OC[C@@]3(C)[C@@H]4C[C@H](OC(=O)c5ccc(C#N)cc5)[C@@]5(C)Oc6cc(-c7cccnc7)oc(=O)c6[C@H](O)[C@@H]5[C@@]4(C)CC[C@@H]3O2)cc1	> 9 h	< 20
CC(C)C(=O)OC[C@@]1(C)[C@@H]2C[C@H](OC(=O)C3CCCCC3)[C@@]3(C)Oc4cc(-c5cccnc5)oc(=O)c4[C@H](O)[C@@H]3[C@@]2(C)CC[C@@H]1OC(=O)C(C)C	> 9 h	< 20
Cc1ccc([C@@H]2OC[C@@]3(C)[C@@H]4C[C@H](OC(=O)c5ccc(C#N)cc5)[C@@]5(C)Oc6cc(-c7cccnc7)oc(=O)c6[C@H](O)[C@@H]5[C@@]4(C)CC[C@@H]3O2)cc1	> 9 h	< 20
CC(=O)OCC1(C)[C@@H](OC(C)=O)CC[C@]2(C)[C@H]3[C@@H](O)c4c(cc(-c5cccnc5)oc4=O)O[C@]3(C)[C@@H](OC(=O)C3CCCCC3)C[C@@H]12 (single isomer, unassigned)	< 1 h	–
Cc1ccc([C@@H]2OC[C@@]3(C)[C@@H]4C[C@H](OC(=O)c5ccc(F)cc5)[C@@]5(C)Oc6cc(-c7cccnc7)oc(=O)c6[C@H](O)[C@@H]5[C@@]4(C)CC[C@@H]3O2)cc1	> 9 h	< 20
COc1ccc(C(OC)O[C@H]2C[C@H]3[C@]4(C)CO[C@@H](c5ccccc5)O[C@H]4CC[C@]3(C)[C@H]3[C@@H](O)c4c(cc(-c5cccnc5)oc4=O)O[C@]23C)cc1 (stereo not given in full)	> 9 h	< 20
COc1ccccc1[C@@H]1OC[C@@]2(C)[C@@H]3C[C@H](OC(=O)c4ccc(F)cc4)[C@@]4(C)Oc5cc(-c6cccnc6)oc(=O)c5[C@H](O)[C@@H]4[C@@]3(C)CC[C@@H]2O1	> 9 h	< 20
Cc1ccc([C@@H]2OC[C@@]3(C)[C@@H]4C[C@H](OC(=O)c5ccc(F)cc5)[C@@]5(C)Oc6cc(-c7cccnc7)oc(=O)c6[C@H](O)[C@@H]5[C@@]4(C)CC[C@@H]3O2)c(C)c1	> 9 h	< 20
Cc1cccc(C)c1[C@@H]1OC[C@@]2(C)[C@@H]3C[C@H](OC(=O)c4ccc(C#N)cc4)[C@@]4(C)Oc5cc(-c6cccnc6)oc(=O)c5[C@H](O)[C@@H]4[C@@]3(C)CC[C@@H]2O1	> 9 h	< 20
CC(=O)O[C@H]1C[C@H]2[C@]3(C)CO[C@@H](c4ccccc4)O[C@H]3CC[C@]2(C)[C@H]2[C@@H](O)c3c(cc(-c4cccnc4)oc3=O)O[C@]12C	> 9 h	< 20
C[C@@]12CO[C@@H](c3ccccc3F)O[C@H]1CC[C@@]1(C)[C@H]2C[C@H](OC(=O)c2ccc(F)cc2)[C@@]2(C)Oc3cc(-c4cccnc4)oc(=O)c3[C@H](O)[C@H]12	> 9 h	< 20
Cc1ccc([C@@H]2OC[C@@]3(C)[C@@H]4C[C@H](OC(=O)c5ccc(C#N)cc5)[C@@]5(C)Oc6cc(-c7cccnc7)oc(=O)c6[C@H](O)[C@@H]5[C@@]4(C)CC[C@@H]3O2)c(C)c1	> 9 h	< 20
CC(=O)O[C@H]1C[C@H]2[C@](C)(COC(=O)C(C)C)[C@@H](OC(=O)C(C)C)CC[C@]2(C)[C@H]2[C@@H](O)c3c(cc(-c4cccnc4)oc3=O)O[C@]12C	> 9 h	< 20
C[C@@]12CO[C@@H](c3ccccc3)O[C@H]1CC[C@@]1(C)[C@H]2C[C@H](OC(=O)c2ccccc2)[C@@]2(C)Oc3cc(-c4cccnc4)oc(=O)c3[C@H](O)[C@H]12	> 9 h	< 20
Cc1cccc([C@@H]2OC[C@@]3(C)[C@@H]4C[C@H](OC(=O)c5ccc(C#N)cc5)[C@@]5(C)Oc6cc(-c7cccnc7)oc(=O)c6[C@H](O)[C@@H]5[C@@]4(C)CC[C@@H]3O2)c1	–	< 20

Continued, values first:

half-life at 6 ug/ml [1]	Ratio IC50 [2]	Compound
> 9 h	< 1	CC(C)C(=O)OCC1(C)[C@@H](OC(=O)C(C)C)CC[C@]2(C)[C@H]3[C@@H](O)c4c(cc(-c5cccnc5)oc4=O)O[C@]3(C)[C@@H](OC(=O)c3ccc(C#N)cc3)C[C@@H]12 (single isomer, unassigned)
< 1 h	–	CC(=O)OCC1(C)[C@@H](OC(C)=O)CC[C@]2(C)[C@H]3[C@@H](O)c4c(cc(-c5cccnc5)oc4=O)O[C@]3(C)[C@@H](OC(=O)c3ccccc3F)C[C@@H]12 (single isomer, unassigned)
> 9 h	< 5	COc1cccc(C(=O)O[C@H]2C[C@H]3C(C)(COC(C)=O)[C@@H](OC(C)=O)CC[C@]3(C)[C@H]3[C@@H](O)c4c(cc(-c5cccnc5)oc4=O)O[C@]23C)c1 (single isomer, unassigned)
> 9 h	< 20	C[C@@]12CO[C@@H](c3cccc4ccccc34)O[C@H]1CC[C@@]1(C)[C@H]2C[C@H](OC(=O)c2ccc(C#N)cc2)[C@@]2(C)Oc3cc(-c4cccnc4)oc(=O)c3[C@H](O)[C@H]12
> 9 h	< 20	COC(=O)[C@@]1(C)[C@@H](OC(C)=O)CC[C@]2(C)[C@H]3[C@@H](O)c4c(cc(-c5cccnc5)oc4=O)O[C@]3(C)[C@@H](OC(=O)c3ccc(C#N)cc3)C[C@H]21
> 9 h	< 20	CC(C)C(=O)OC[C@@]1(C)[C@@H]2C[C@H](OC(=O)c3ccc([N+](=O)[O-])cc3)[C@@]3(C)Oc4cc(-c5cccnc5)oc(=O)c4[C@H](O)[C@@H]3[C@@]2(C)CC[C@@H]1OC(=O)C(C)C
< 1 h	–	CC(=O)OCC1(C)[C@@H](OC(C)=O)CC[C@]2(C)[C@H]3[C@@H](O)c4c(cc(-c5cccnc5)oc4=O)O[C@]3(C)[C@@H](OC(=O)c3ccc(C)cc3)C[C@@H]12 (single isomer, unassigned)
> 9 h	< 20	CCCCCC(=O)OC[C@@]1(C)[C@@H]2C[C@H](OC(=O)c3ccc(C#N)cc3)[C@@]3(C)Oc4cc(-c5cccnc5)oc(=O)c4[C@H](O)[C@@H]3[C@@]2(C)CC[C@@H]1OC(=O)CCCCC
> 9 h	< 20	CC(=O)O[C@H]1CC[C@@]2(C)[C@@H](C[C@H](OC(=O)c3ccc(C#N)cc3)[C@@]3(C)Oc4cc(-c5cccnc5)oc(=O)c4[C@H](O)[C@H]23)[C@]1(C)COC(=O)c1ccccc1
> 9 h	< 20	COc1ccccc1[C@@H]1OC[C@@]2(C)[C@@H]3C[C@H](OC(=O)c4ccc(C#N)cc4)[C@@]4(C)Oc5cc(-c6cccnc6)oc(=O)c5[C@H](O)[C@@H]4[C@@]3(C)CC[C@@H]2O1
> 9 h	< 20	CC(=O)OC[C@@]1(C)[C@@H]2C[C@H](OC(=O)c3ccc(C#N)cc3)[C@@]3(C)Oc4cc(-c5cccnc5)oc(=O)c4[C@H](O)[C@@H]3[C@@]2(C)CC[C@@H]1OC(=O)C(C)C
> 9 h	< 20	C[C@@]12CO[C@@H](c3ccccc3F)O[C@H]1CC[C@@]1(C)[C@H]2C[C@H](OC(=O)c2ccc(C#N)cc2)[C@@]2(C)Oc3cc(-c4cccnc4)oc(=O)c3[C@H](O)[C@H]12
> 9 h	< 20	Cc1ccccc1[C@@H]1OC[C@@]2(C)[C@@H]3C[C@H](OC(=O)c4ccc(C#N)cc4)[C@@]4(C)Oc5cc(-c6cccnc6)oc(=O)c5[C@H](O)[C@@H]4[C@@]3(C)CC[C@@H]2O1
< 1 h	–	CC(=O)OCC1(C)[C@@H](OC(C)=O)CC[C@]2(C)[C@H]3[C@@H](O)c4c(cc(-c5cccnc5)oc4=O)O[C@]3(C)[C@@H](OC(=O)c3ccccc3C)C[C@@H]12 (single isomer, unassigned)
> 9 h	< 20	CC(=O)OC[C@@]1(C)[C@@H]2C[C@H](OC(=O)c3ccc(C#N)cc3)[C@@]3(C)Oc4cc(-c5cccnc5)oc(=O)c4[C@H](O)[C@@H]3[C@@]2(C)CC[C@@H]1OC(=O)c1ccccc1
< 1 h	–	CC(=O)OCC1(C)[C@@H](OC(C)=O)CC[C@]2(C)[C@H]3[C@@H](O)c4c(cc(-c5cccnc5)oc4=O)O[C@]3(C)[C@@H](OC(=O)c3cccc(Br)c3)C[C@@H]12 (single isomer, unassigned)
> 9 h	< 20	CC(=O)O[C@H]1CC[C@]2(C)[C@H]3[C@@H](O)c4c(cc(-c5cccnc5)oc4=O)O[C@]3(C)[C@@H](OC(=O)c3ccc(C#N)cc3)C[C@H]2[C@@]1(C)C(=O)O
> 9 h	< 20	C[C@]1(COC(=O)c2ccccc2)[C@@H]2C[C@H](OC(=O)c3ccc(C#N)cc3)[C@@]3(C)Oc4cc(-c5cccnc5)oc(=O)c4[C@H](O)[C@@H]3[C@@]2(C)CC[C@@H]1OC(=O)c1ccccc1
> 9 h	< 20	CC(=O)O[C@H]1CC[C@@]2(C)[C@@H](C[C@H](OC(=O)c3ccc(C#N)cc3)[C@@]3(C)Oc4cc(-c5cccnc5)oc(=O)c4[C@H](O)[C@H]23)[C@]1(C)COC(=O)C(C)C
< 1 h	–	CCc1ccc(C(=O)O[C@H]2C[C@H]3C(C)(COC(C)=O)[C@@H](OC(C)=O)CC[C@]3(C)[C@H]3[C@@H](O)c4c(cc(-c5cccnc5)oc4=O)O[C@]23C)cc1 (single isomer, unassigned)
